{"source": "patent US12686692B2", "about": "“KRas G12D inhibitors” (Mirati Therapeutics, Inc., priority 2020, dated 2026)", "key": {"KRas G12D [1]": {"biological_target": "T1, KRas G12D (Homo sapiens, UniProt P01116, G12D)", "test": "KRas G12D Surface Plasmon Resonance (SPR) Binding Assay", "settings": "Biacore T200, biotinylated Avidin-tagged KRAS protein on SA chip, 20 C, 1:1 binding model", "how_it_was_run": "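Biotinylated Avi-tagged KRAS G12D was captured on a streptavidin chip; compounds were injected as 3-fold dilution series in HBS-Mg buffer, pH 7.5, with DMSO at 20 C (60 s contact, 120 s dissociation). Binding constants came from 1:1 model fits.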"}, "KRas G12D [2]": {"biological_target": "T1, KRas G12D", "test": "KRas G12D Binding Assay (TR-FRET displacement of labeled tracer)", "set-up": "corresponding to amino acids 1:169, produced at Array BioPharma; biotin (protein is biotinylated)", "settings": "TR-FRET displacement of Cy5 labelled tracer, biotinylated GDP-loaded KRAS G12D (aa 1:169), 60 minute incubation at 22° C.", "how_it_was_run": "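Biotinylated GDP-loaded human KRAS G12D (aa 1–169) incubated with Cy5 tracer, Eu-streptavidin and compound (2% DMSO final) in 50 mM HEPES pH 7.5, 5 mM MgCl2, 0.005% Tween-20, 1 mM DTT, 60 min at 22 °C. TR-FRET ratio converted to percent of control; IC50 at 50 POC from 4-parameter logistic fit.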"}, "[3]": {"system": "KRas G12D-mediated Phosphorylation of ERK", "test": "Inhibition of KRas G12D-mediated Phosphorylation of ERK in AGS cells", "type": "cell-based", "settings": "Homo sapiens; AGS cells expressing G12D, 3 hours, phospho-ERK normalized to GAPDH", "how_it_was_run": "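AGS cells (endogenous KRas G12D) were treated with compounds for 3 h in 0.5% DMSO, then fixed, permeabilized and immunostained. The phospho-ERK (Thr202/Tyr204) signal was normalized to GAPDH in-cell by infrared detection and expressed as % of DMSO control. IC50 came from a 4-parameter fit.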"}}}
{"smiles": "CN1CCC[C@H]1COc1nc2c(c(N3C[C@H]4CC[C@@H](C3)N4)n1)CCN(c1cccc3ccc(F)cc13)C2", "note": "[Example 72, 4-((1R,5S)-3,8-diazabicyclo[3.2.1]octan-3-yl)-7-(7-fluoronaphthalen-1-yl)-2-(((S)-1-methylpyrrolidin-2-yl)methoxy)-5,6,7,8-tetrahydropyrido[3,4-d]pyrimidine]", "values": [{"measurement": "Kd", "setting": "KRas G12D [1]", "result": 923, "unit": "nM"}, {"measurement": "IC50", "setting": "KRas G12D [2]", "result": 226, "unit": "nM"}, {"measurement": "IC50", "setting": "[3]", "result": "> 16700", "unit": "nM"}]}
{"smiles": "CN1CCC[C@H]1COc1nc2c(c(N3C[C@H]4CC[C@@H](C3)N4)n1)CCN(c1c(F)cccc1C(F)(F)F)C2", "note": "[Example 75, 4-((1R,5S)-3,8-diazabicyclo[3.2.1]octan-3-yl)-7-(2-fluoro-6-(trifluoromethyl)phenyl)-2-(((S)-1-methylpyrrolidin-2-yl)methoxy)-5,6,7,8-tetrahydropyrido[3,4-d]pyrimidine]", "values": [{"measurement": "Kd", "setting": "KRas G12D [1]", "result": 170000, "unit": "nM"}, {"measurement": "IC50", "setting": "KRas G12D [2]", "result": "> 10000", "unit": "nM"}, {"measurement": "IC50", "setting": "[3]", "result": "> 16700", "unit": "nM"}]}
{"smiles": "CN1CCC[C@H]1COc1nc2c(c(N3C[C@H]4CC[C@@H](C3)N4)n1)CCN(c1c(F)ccc(F)c1C(F)F)C2", "note": "[Example 76, 4-((1R,5S)-3,8-diazabicyclo[3.2.1]octan-3-yl)-7-(2-(difluoromethyl)-3,6-difluorophenyl)-2-(((S)-1-methylpyrrolidin-2-yl)methoxy)-5,6,7,8-tetrahydropyrido[3,4-d]pyrimidine]", "values": [{"measurement": "Kd", "setting": "KRas G12D [1]", "result": 97000, "unit": "nM"}, {"measurement": "IC50", "setting": "KRas G12D [2]", "result": "> 10000", "unit": "nM"}, {"measurement": "IC50", "setting": "[3]", "result": "> 16700", "unit": "nM"}]}
{"smiles": "CN1CCC[C@H]1COc1nc2c(c(N3C[C@H]4CC(CCO)[C@@H](C3)N4)n1)CCN(c1cccc3cccc(Cl)c13)C2", "note": "(stereo partly drawn) [Example 91, 2-((1R,5S)-3-(7-(8-chloronaphthalen-1-yl)-2-(((S)-1-methylpyrrolidin-2-yl)methoxy)-5,6,7,8-tetrahydropyrido[3,4-d]pyrimidin-4-yl)-3,8-diazabicyclo[3.2.1]octan-6-yl)ethan-1-ol]", "values": [{"measurement": "Kd", "setting": "KRas G12D [1]", "result": 176, "unit": "nM"}, {"measurement": "IC50", "setting": "KRas G12D [2]", "result": 78.4, "unit": "nM"}, {"measurement": "IC50", "setting": "[3]", "result": "> 16700", "unit": "nM"}]}
{"smiles": "CN1CCC[C@H]1COc1nc2c(c(N3C[C@@H]4C[C@@H](O)[C@H](C3)N4)n1)CCN(c1cccc3cccc(Cl)c13)C2", "note": "[Example 95, (1S,5S,6R)-3-(7-(8-chloronaphthalen-1-yl)-2-(((S)-1-methylpyrrolidin-2-yl)methoxy)-5,6,7,8-tetrahydropyrido[3,4-d]pyrimidin-4-yl)-3,8-diazabicyclo[3.2.1]octan-6-ol]", "values": [{"measurement": "Kd", "setting": "KRas G12D [1]", "result": 58.3, "unit": "nM"}, {"measurement": "IC50", "setting": "KRas G12D [2]", "result": 50.6, "unit": "nM"}, {"measurement": "IC50", "setting": "[3]", "result": "> 16700", "unit": "nM"}]}
{"smiles": "CN1CCC[C@H]1COc1nc2c(c(N3C[C@H]4CC[C@@H](C3)N4)n1)CCN(c1cc(O)c(Br)c3ccccc13)C2", "note": "[Example 109, 4-(4-((1R,5S)-3,8-diazabicyclo[3.2.1]octan-3-yl)-2-(((S)-1-methylpyrrolidin-2-yl)methoxy)-5,8-dihydropyrido[3,4-d]pyrimidin-7(6H)-yl)-1-bromonaphthalen-2-ol]", "values": [{"measurement": "Kd", "setting": "KRas G12D [1]", "result": 20.8, "unit": "nM"}, {"measurement": "IC50", "setting": "KRas G12D [2]", "result": 5.5, "unit": "nM"}, {"measurement": "IC50", "setting": "[3]", "result": 663, "unit": "nM"}]}
